Like-named read-outs stand apart in the source and are kept apart here.
Key:
[1] = Mouse liver microsomes stability with NADPH; details: for half-life at 2 μM / microsomal CLint at 2 μM: male, mouse, microsomes; for Remaining Percentage (%) after 60 min, Mouse: mouse liver microsomes, with NADPH, 2 μM
Experimental: (§1) The objective of this study was to estimate in vitro metabolic stability of exemplary compounds in pooled human, male rat and male mouse liver microsomes. The concentrations of exemplary compounds in reaction systems were evaluated by LC-MS/MS for estimating the stability in pooled human, male rat and male mouse liver microsomes. The in vitro intrinsic clearances of test compounds were determined as well.
(§2) A master solution in the “Incubation Plate” containing phosphate buffer, ultra-pure H2O, MgCl2 solution and liver microsomes was made according to Table 3. The mixture was pre-warmed at 37° C. water bath for 5 minutes.
(§3) 40 μL of 10 mM NADPH solution was added to each well. The final concentration of NADPH was 1 mM. The negative control samples were prepared by replacing NADPH with 40 μL of ultra-pure H2O. Samples were prepared in duplicate. Negative controls were prepared in singlet.
(§4) The reaction was started with the addition of 4 μL of 200 μM exemplary test compounds or control compounds to each master solution to get the final concentration of 2 μM. This study was performed in duplicate.
(§5) Aliquots of 50 μL were taken from the reaction solution at 0, 15, 30, 45 and 60 minutes. The reaction solutions were stopped by the addition of 4 volumes of cold methanol with IS (100 nM alprazolam, 200 nM imipramine, 200 nM labetalol and 2 μM ketoprofen). Samples were centrifuged at 3,220 g for 40 minutes. Aliquot of 90 μL of the supernatant was mixed with 90 μL of ultra-pure H2O and then was used for LC-MS/MS analysis.
(§6) LC/MS analysis was performed for all samples from this study using a Shimadzu liquid chromatograph separation system equipped with degasser DGU-20A5R; solvent delivery unit LC-30AD; system controller SIL-30AC; column oven CTO-30A; CTC Analytics HTC PAL System. Mass spectrometric analysis was performed using an Triple Quad™ 5500 instrument.
(§7) All calculations were carried out using Microsoft Excel. Peak areas were determined from extracted ion chromatograms. The slope value, k, was determined by linear regression of the natural logarithm of the remaining percentage of the parent drug vs. incubation time curve.
(§8) Conversion of the in vitro t1/2 (min) into the in vitro intrinsic clearance (in vitro CLint, in μL/min/mg proteins) was done using the following equation (mean of duplicate determinations): […]

[2] = molecular target: human 5-HT2A (h5-HT2A) receptor (Homo sapiens (Human), UniProt P28223); experiment: FLIPR calcium assay, human 5-HT2A receptor, agonist mode; type: cell-based
Experimental: I. Assessment of the Activated Effect of Exemplary Compounds of Formula I Targeting on Human 5-HT2A (h5-HT2A) Receptor Under Agonist Mode:
1. Culture the cells in cell culture medium (DMEM containing 10% FBS, 1× penicillin-streptomycin 300 μg/ml G418 and 100 μg/ml hygromycin B) at 37° C., 5% (v/v) CO2.
2. One day before the assays, detach the cell using TrypLE™ Express and count cells using cell counter.
3. Seed 20000 cells/well in 30 μl/well culture medium to a 384-well cell plate and incubate the cells overnight at 37° C., 5% (v/v) CO2.
4. On the assay day, prepare 2×dye solution following the manual of the FLIPR® Calcium 6 Assay Kit: i. Dilute the dye with assay buffer(20 mM HEPES in 1× HBSS, PH7.4); ii. Add probenecid to the final concentration of 5 mM; iii. Vortex vigorously for 1-2 minutes.
5. Medium from cell plate by flicking the cell plate on towel papers.
6. Add 10 μl of assay buffer and 10 μl of 2×dye solution to each well of the cell plate.
7. Put the cell plate on plate shaker, agitate the plate at 600 rpm for 2 minutes. Incubate the plate at 37° C. for 2 hours followed by additional 15-minute incubation at 25° C.
8. Prepare 3×compound in assay buffer: a. Dilute reference compounds to required concentration with DMSO. Add the compounds to a 384-well compound plate; b. Perform serial dilutions; c. Add 10 mM test compounds to the compound plate, perform 3-fold serial dilutions. d. […] Add 20 μl/well assay buffer to the compound plate; f. Mix the plate on plate shaker for 2 mins;
i. The normalized fluorescence reading (RFU) is calculated as shown follow, while Fmax and Fmin stand for maximum and minimum of calcium signal during defined time window: RFU=Fmax−Fmin
ii. Calculate the percentage activation by using following equation: […]
iii. Calculate EC50 by fitting % activation against log of compound concentrations with Hill equation using XLfit.

[3] = Human liver microsomes stability with NADPH; details: for Remaining Percentage (%) after 60 min, Human: human liver microsomes, with NADPH, 2 μM; for half-life at 2 μM / microsomal CLint at 2 μM: human, microsomes
Experimental: as §1, §2, §3, §4, §5, §6, §7, §8

[4] = In vivo pharmacokinetics in male C57BL/6 mice (IV and PO); details: mouse; for AUC(0-inf) / C0 / clearance / AUC(0-t) / half-life / MRT inf / Vd / Cmax / Tmax / bioavailability: male, C57BL/6, plasma; for AUC(0-t): read-out: AUC0-tlast; for half-life: read-out: Apparent t1/2 (converted); for MRT inf: read-out: MRT0-inf; for Vd: read-out: Vss; for bioavailability: read-out: F (bioavailability)
Experimental: Example 26: In Vivo Assessment of the Pharmacokinetics in Mice and Rats […]
Male C57BL/6 mice (25-30 g) from Charles River Labs were acclimatized for a minimum of 5 days prior to dosing. Body weights will be recorded on the day of dosing.
Animals dosed p.o. were deprived of food overnight and fed ˜2 h following dosing.
Formulations were administered intravenously (i.v.) via the tail vein or orally (p.o.) by gavage with disposable feeding needles.
Serial blood samples were collected via tail snip. Terminal blood samples will be collected under isoflurane anesthesia by cardiac puncture.
All blood samples were transferred into K2EDTA tubes on wet ice and centrifuged within 5 min (3200×g for 5 min at 4° C.) to obtain plasma. Plasma will be stored at −80° C. until analysis.
AB Sciex QTRAP 4000 or 6500 MS/MS system equipped with an LC system with a binary pump, a solvent degasser, a thermostatted column compartment and a multiplate autosampler. i. Analysis software: Phoenix® WinNonlin® 8.2 (Pharsight, Certara, Mountainview, Calif.) ii. Analysis methods: non-compartmental analysis, linear up/log down trapezoidal rule iii. PK parameters: C0, t1/2, AUC0-tlast. AUC0-∞, CL, Vss, MRT, tmax(po), Cmax(po), F, as appropriate • C0 concentration extrapolated to time zero following an i.v. dose • tmax time at which maximum concentration is observed • Cmax maximum observed concentration • Apparent t1/2 apparent terminal half-life • AUC0-tlast area under the concentration vs time curve from time 0 to the time of the last measurable concentration • AUC0-inf area under the concentration vs time curve from time 0 to infinity • CL systemic clearance • MRT0-inf mean residence time from time zero to infinity • Vss steady-state volume of distribution • F bioavailability=(Dose^iv*AUC^po)/(Dose^po*AUC^iv)*100

Row | SMILES | half-life at 2 μM [1] | microsomal CLint at 2 μM [1] | Remaining Percentage (%) after 60 min, Mouse [1] | EC50 [2] | Remaining Percentage (%) after 60 min, Human [3] | half-life at 2 μM [3] | microsomal CLint at 2 μM [3] | AUC(0-inf) ([4]; IV, 1 mg/kg) | C0 ([4]; IV, 1 mg/kg) | clearance ([4]; IV, 1 mg/kg) | AUC(0-t) ([4]; IV, 1 mg/kg) | half-life ([4]; IV, 1 mg/kg) | MRT inf ([4]; IV, 1 mg/kg) | Vd ([4]; IV, 1 mg/kg) | AUC(0-inf) ([4]; PO, 10 mg/kg) | Cmax ([4]; PO, 10 mg/kg) | Tmax ([4]; PO, 10 mg/kg) | AUC(0-t) ([4]; PO, 10 mg/kg) | half-life ([4]; PO, 10 mg/kg) | bioavailability ([4]; PO, 10 mg/kg) | further results
1 | [2H]C([2H])([2H])N1CCC[C@@H]1Cc1c[nH]c2cccc(O)c12 [Compound I-2, (R)-3-((1-(methyl-d3)pyrrolidin-2-yl)methyl)-1H-indol-4-ol] | 1.43 h | 16.2 µL/min/mg | 61.51% | < 1000 nM | 82.10% | 3.51 h | 6.57 µL/min/mg | 463 ± 423 ng·h/mL | 3590 ± 4100 ng/mL | 64.5 mL/min/kg | 461 ± 421 ng·h/mL | 3.09 ± 2.79 h | 0.733 ± 0.194 h | 3.09 ± 3.22 L/kg | 314 ng·h/mL | 117 ± 23.7 ng/mL | 0.25 h | 271 ± 30.9 ng·h/mL | 9.31 h | 6.27 ± 0.906% | AUC(0-inf) ([4]; IV, 5 mg/kg): 1410 ± 862 ng·h/mL; C0 ([4]; IV, 5 mg/kg): 4780 ± 3570 ng/mL; clearance ([4]; IV, 5 mg/kg): 72.8 mL/min/kg; AUC(0-t) ([4]; IV, 5 mg/kg): 1370 ± 869 ng·h/mL; half-life ([4]; IV, 5 mg/kg): 12.7 ± 4.24 h; MRT inf ([4]; IV, 5 mg/kg): 3.1 ± 1.43 h; Vd ([4]; IV, 5 mg/kg): 15.3 ± 10.5 L/kg; MRT inf ([4]; PO, 10 mg/kg): 7.88 h; AUC0-inf/Dose ([4]; IV, 1 mg/kg): 463 ± 423 kg·ng·h/mL/mg; AUC0-inf/Dose ([4]; IV, 5 mg/kg): 282 ± 172 kg·ng·h/mL/mg; AUC0-inf/Dose ([4]; PO, 10 mg/kg): 31.4 (n = 2) h*kg*ng/mL/mg; Cmax/Dose ([4]; PO, 10 mg/kg): 11.7 ± 2.37 kg·ng/mL/mg
2 | [2H]C([2H])(c1c[nH]c2cccc(OC)c12)[C@H]1CCCN1C([2H])([2H])[2H] [Compound I-39, (R)-4-methoxy-3-((1-(methyl-d3)pyrrolidin-2-yl)methyl-d2)-1H-indole] | 1.6 h | 14.4 µL/min/mg | 64.91% | < 1000 nM | 73.65% | 2.27 h | 10.2 µL/min/mg | 1960 ± 696 ng·h/mL | 1290 ± 782 ng/mL | 9.25 mL/min/kg | 1960 ± 696 ng·h/mL | 2.51 ± 0.366 h | 2.78 ± 0.388 h | 1.5 ± 0.397 L/kg | 214 ± 49.6 ng·h/mL | 134 ± 14.7 ng/mL | 0.5 h | 210 ± 46.6 ng·h/mL | 3.91 ± 1.81 h | 1.09 ± 0.253% | MRT inf ([4]; PO, 10 mg/kg): 2.3 ± 0.259 h; AUC0-inf/Dose ([4]; IV, 1 mg/kg): 1960 ± 696 kg·ng·h/mL/mg; AUC0-inf/Dose ([4]; PO, 10 mg/kg): 21.4 ± 4.96 kg·ng·h/mL/mg; Cmax/Dose ([4]; PO, 10 mg/kg): 13.4 ± 1.47 kg·ng/mL/mg
3 | [2H]C([2H])(c1c[nH]c2cccc(O)c12)[C@H]1CCCN1C([2H])([2H])[2H] [Compound I-44, (R)-3-((1-(methyl-d3)pyrrolidin-2-yl)methyl-d2)-1H-indol-4-ol] | 1.18 h | 19.5 µL/min/mg | 55.68% | < 1000 nM | 78.13% | 2.81 h | 8.23 µL/min/mg | 598 ± 434 ng·h/mL | 2570 ± 2560 ng/mL | 42.5 mL/min/kg | 595 ± 433 ng·h/mL | 1.18 ± 0.205 h | 0.754 ± 0.12 h | 1.98 ± 1.58 L/kg | 537 ± 274 ng·h/mL | 158 ± 55.4 ng/mL | 0.75 ± 0.433 h | 477 ± 260 ng·h/mL | 2.71 ± 0.511 h | 8.98 ± 4.58% | MRT inf ([4]; PO, 10 mg/kg): 3.5 ± 0.965 h; AUC0-inf/Dose ([4]; IV, 1 mg/kg): 598 ± 434 kg·ng·h/mL/mg; AUC0-inf/Dose ([4]; PO, 10 mg/kg): 53.7 ± 27.4 kg·ng·h/mL/mg; Cmax/Dose ([4]; PO, 10 mg/kg): 15.8 ± 5.54 kg·ng/mL/mg

Source: patent publication US11453689B2, “3-pyrrolidine-indole derivatives as serotonergic psychedelic agents for the treatment of CNS disorders” (Mindset Pharma Inc., priority 2020, dated 2022)
